Results: ChEMBL document CHEMBL5550167, “Emerging trends in small molecule inhibitors targeting aldosterone synthase: A new paradigm in cardiovascular disease treatment” (Eur J Med Chem, 2024)

Assays:
[1] = target: T1, Cytochrome P450 11B1, mitochondrial (Homo sapiens, UniProt P15538); assay: (§1) Inhibition of CYP11B1 (unknown origin); assay type: ADME
T1 sequence (P15538 whole entry): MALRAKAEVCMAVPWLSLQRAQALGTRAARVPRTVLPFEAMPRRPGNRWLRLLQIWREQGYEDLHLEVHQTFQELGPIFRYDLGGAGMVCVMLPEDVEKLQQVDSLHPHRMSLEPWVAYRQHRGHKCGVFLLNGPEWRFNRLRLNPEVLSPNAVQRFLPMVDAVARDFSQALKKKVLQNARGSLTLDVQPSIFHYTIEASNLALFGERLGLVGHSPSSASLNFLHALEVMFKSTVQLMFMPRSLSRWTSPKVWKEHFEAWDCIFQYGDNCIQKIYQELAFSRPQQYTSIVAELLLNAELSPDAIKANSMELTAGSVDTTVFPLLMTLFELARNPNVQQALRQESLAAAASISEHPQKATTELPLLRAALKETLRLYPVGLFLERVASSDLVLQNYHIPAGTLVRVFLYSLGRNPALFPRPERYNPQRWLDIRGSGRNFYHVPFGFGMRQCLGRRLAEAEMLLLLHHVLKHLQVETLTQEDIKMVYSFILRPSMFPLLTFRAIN

[2] = target: T2, Cytochrome P450 11B2, mitochondrial (Homo sapiens, UniProt P19099); assay: Inhibition of human CYP11B2 stably expressed in G-402 cells; assay type: ADME, cell-based
T2 sequence (P19099 whole entry): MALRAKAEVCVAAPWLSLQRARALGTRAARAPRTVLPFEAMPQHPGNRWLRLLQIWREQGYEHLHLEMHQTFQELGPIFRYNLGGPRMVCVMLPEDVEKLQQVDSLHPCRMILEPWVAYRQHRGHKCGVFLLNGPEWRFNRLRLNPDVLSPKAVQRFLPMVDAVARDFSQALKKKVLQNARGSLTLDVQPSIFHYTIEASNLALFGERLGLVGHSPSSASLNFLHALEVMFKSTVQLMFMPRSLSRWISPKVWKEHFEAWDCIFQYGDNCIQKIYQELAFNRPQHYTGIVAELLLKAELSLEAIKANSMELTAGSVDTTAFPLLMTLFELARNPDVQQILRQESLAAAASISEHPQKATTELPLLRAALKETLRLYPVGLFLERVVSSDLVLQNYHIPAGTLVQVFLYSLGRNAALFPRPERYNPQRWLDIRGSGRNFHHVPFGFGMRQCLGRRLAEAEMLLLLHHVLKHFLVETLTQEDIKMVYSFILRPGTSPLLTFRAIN

[3] = target: T2, Cytochrome P450 11B2, mitochondrial; assay: Inhibition of CYP11B2 (unknown origin); assay type: ADME
[4] = target: T3, CYP11B1 (Homo sapiens, UniProt P15538); assay: as §1; assay type: ADME
T3 sequence (P15538 whole entry): T1 sequence (P15538 whole entry)

[5] = target: T2, Cytochrome P450 11B2, mitochondrial; assay: Inhibition of human CYP11B2 expressed in human NCI-H295 cells incubated for 48 hrs by radioimmuno assay; assay type: ADME, cell-based
[6] = Metabolic stability in human liver microsomes assessed as half life measured upto 60 mins by LC/MS-MS analysis; assay type: ADME, Microsome

Compound	IC50 [3] [nM]	further results
Cc1c(-c2cccnc2)[nH]c2ccccc12		IC50 [1]: 81 nM
Cn1nccc1-c1cncc(N2CCc3cc(Cl)ccc3C2=O)c1Cl		IC50 [2]: 6.2 nM
CC1(C)CN(Cc2ccccc2)c2ccccc2C1N1C=NCC1CO (stereo unspecified)	6	
CCn1cc(C(=O)N2CC3(C2)CN(c2cncc(N4C(=O)c5ccc(Cl)cc5C4(C)C)c2)C3)cn1		IC50 [2]: 0.23 nM
CNC(=O)Cn1cc(NC(=O)CN2CCN(c3cncc(-c4ccc(Cl)cc4)c3)CC2)cn1	3	
CCCC1(c2ccc(C#N)cc2OC)C(=O)N(Cc2ccccc2)Cc2cncn21 (stereo unspecified)	4	
CC(C)CCC1(c2ccccc2Cl)C(=O)N(Cc2ccc(F)cc2)Cc2cncn21 (stereo unspecified)	4	
Cn1cc(C(=O)N2CC(Oc3cncc(N4C(=O)c5ccc(Cl)cc5C4(C)C)c3)C2)cn1		IC50 [2]: 0.5 nM
O=C(CC1CCc2c(-c3ccc(C(F)(F)F)cc3F)cncc21)N1CCCCC1 (stereo unspecified)	2	IC50 [1]: 10 nM
COc1cc2c(cc1-c1cccnc1)CCC(=O)N2C		IC50 [4]: 1100 nM
COc1ccc2c(c1)CC(C)C(c1cncc3ccccc13)=C2 (stereo unspecified)		IC50 [5]: 0.5 nM
CN(C)C(=O)CC1CCCc2c(-c3ccc(C(F)(F)F)cc3F)cncc21 (stereo unspecified)	32	
CC1(C)C(=O)Nc2cccc(Cl)c2C1n1cncc1CO (stereo unspecified)	7	
Cc1nnc2n1-c1ccc(-c3cncc([C@](C)(O)C(F)(F)F)c3)cc1CC2	64	half-life [6]: 2 h
Cc1c(F)cncc1C1COc2c(cccc2C(N)=O)O1 (stereo unspecified)		IC50 [4]: 2600 nM
Cn1c(-c2cccnc2)c(C#N)c2ccc(Cl)cc21		IC50 [1]: 107 nM

The next lines start with results.

IC50 [3] [nM]	Compound	further results
< 10	N#Cc1cccc2c1OCC(c1cncc(CN3CCCCS3(=O)=O)c1)O2 (stereo unspecified)	
40	N#Cc1ccc(-c2cncc3c2CCCC3)cc1	
2.2	CC(C)NC(=O)CN1CCN(c2cncc(-c3ccc4c(c3)CCO4)n2)C1	
33	CC1(c2ccccc2)CCc2cncc(-c3ccc(C(F)(F)F)cc3F)c21 (stereo unspecified)	IC50 [1]: 738 nM
< 10	N#Cc1cccc2c1OCC(c1cncc(C(O)C3CCOCC3)c1)O2 (stereo unspecified)	
< 10	CS(=O)(=O)COc1cncc(C2COc3c(C#N)cccc3O2)c1 (stereo unspecified)	
< 10	N#Cc1cccc2c1OCC(c1cncc(CN3CCOC3=O)c1)O2 (stereo unspecified)	
